Here are results for one compound from paper PMC5218480 (PLoS ONE, 2017).

The test system of this assay is MV-4-11 cells. In words: Gene expression microarray analysis (Affymetrix PrimeView) and GSEA. The conditions noted are these: ProbeSet 11753234_a_at; LIST B. On the set-up: RFU PODN (11730768_x_at) / Fold change /veh PODN (11730768_x_at) / RFU LINC00158 (11744669_a_at) / Fold change /veh LINC00158 (11744669_a_at) / RFU DUSP10 (11751237_a_at) / Fold change /veh DUSP10 (11751237_a_at) / RFU ID3 (11757404_x_at) / Fold change /veh ID3 (11757404_x_at) / RFU PLEKHG5 (11737974_s_at) / Fold change /veh PLEKHG5 (11737974_s_at) / RFU LRRC4B (11730491_at) / Fold change /veh LRRC4B (11730491_at) / RFU GIMAP4 (11747438_a_at) / Fold change /veh GIMAP4 (11747438_a_at) / RFU KRT8 (11758183_x_at) / Fold change /veh KRT8 (11758183_x_at) / RFU CNN1 (11734310_a_at) / Fold change /veh CNN1 (11734310_a_at) / RFU VPS37D (11726825_at) / Fold change /veh VPS37D (11726825_at) / RFU C10orf10 (11716522_x_at) / Fold change /veh C10orf10 (11716522_x_at) / RFU KIR2DL2 /// KIR2DL4 /// KIR2DL5A /// KIR2DL5B /// KIR2DS1 /// KIR2DS2 /// KIR2DS3 /// KIR2DS4 /// KIR3DL3 /// KIR3DL3 /// KIR3DS1 (11738374_at) / Fold change /veh KIR2DL2 /// KIR2DL4 /// KIR2DL5A /// KIR2DL5B /// KIR2DS1 /// KIR2DS2 /// KIR2DS3 /// KIR2DS4 /// KIR3DL3 /// KIR3DL3 /// KIR3DS1 (11738374_at) / RFU C1QL1 (11718748_at) / Fold change /veh C1QL1 (11718748_at) / RFU TMPRSS4 (11747572_a_at) / Fold change /veh TMPRSS4 (11747572_a_at) / RFU HAMP (11756126_x_at) / Fold change /veh HAMP (11756126_x_at) / RFU RNFT2 (11725882_a_at) / Fold change /veh RNFT2 (11725882_a_at) / RFU NR4A2 (11747474_a_at) / Fold change /veh NR4A2 (11747474_a_at) / RFU ABCC12 (11746883_a_at) / Fold change /veh ABCC12 (11746883_a_at) / RFU TMEM136 (11760407_x_at) / Fold change /veh TMEM136 (11760407_x_at) / RFU CLDN22 /// WWC2 (11732394_at) / Fold change /veh CLDN22 /// WWC2 (11732394_at) / RFU HLA-DPB1 (11760878_x_at) / Fold change /veh HLA-DPB1 (11760878_x_at) / RFU SPINT1 (11716480_a_at) / Fold change /veh SPINT1 (11716480_a_at) / RFU GAP43 (11754022_s_at) / Fold change /veh GAP43 (11754022_s_at) / RFU A4GNT (11735810_at) / Fold change /veh A4GNT (11735810_at) / RFU PRB3 (11715151_x_at) / Fold change /veh PRB3 (11715151_x_at) / RFU TUBB4B (11761932_at) / Fold change /veh TUBB4B (11761932_at) / RFU CAPN14 (11732068_a_at) / Fold change /veh CAPN14 (11732068_a_at) / RFU TMCC2 (11721928_a_at) / Fold change /veh TMCC2 (11721928_a_at) / RFU IRGQ (11745062_a_at) / Fold change /veh IRGQ (11745062_a_at) / RFU FAM174B (11720279_a_at) / Fold change /veh FAM174B (11720279_a_at) / RFU TMPRSS4 (11748680_a_at) / Fold change /veh TMPRSS4 (11748680_a_at) / RFU FAM212B (11763350_a_at) / Fold change /veh FAM212B (11763350_a_at) / RFU PLEKHG5 (11743358_a_at) / Fold change /veh PLEKHG5 (11743358_a_at) / RFU ZSCAN30 (11745921_a_at) / Fold change /veh ZSCAN30 (11745921_a_at) / RFU CMKLR1 (11741424_a_at) / Fold change /veh CMKLR1 (11741424_a_at) / RFU LOC101060620 /// MAPK8IP1 (11723275_at) / Fold change /veh LOC101060620 /// MAPK8IP1 (11723275_at) / RFU SPTSSB (11747773_x_at) / Fold change /veh SPTSSB (11747773_x_at) / RFU PRSS12 (11739890_at) / Fold change /veh PRSS12 (11739890_at) / RFU BIN1 (11741810_x_at) / Fold change /veh BIN1 (11741810_x_at) / RFU WNT11 (11732464_a_at) / Fold change /veh WNT11 (11732464_a_at) / RFU C10orf10 (11716521_a_at) / Fold change /veh C10orf10 (11716521_a_at) / RFU C5orf56 (11738089_at) / Fold change /veh C5orf56 (11738089_at) / RFU CYB561 (11721691_x_at) / Fold change /veh CYB561 (11721691_x_at) / RFU ANKRD19P (11752326_a_at) / Fold change /veh ANKRD19P (11752326_a_at) / RFU OR2T12 /// OR2T33 /// OR2T8 (11738714_s_at) / Fold change /veh OR2T12 /// OR2T33 /// OR2T8 (11738714_s_at) / RFU VCAN (11748164_a_at) / Fold change /veh VCAN (11748164_a_at) / RFU JSRP1 (11732532_at) / Fold change /veh JSRP1 (11732532_at) / RFU KRTAP10-11 (11738290_x_at) / Fold change /veh KRTAP10-11 (11738290_x_at) / RFU MYO3A (11730013_a_at) / Fold change /veh MYO3A (11730013_a_at) / RFU EBF3 (11725865_a_at) / Fold change /veh EBF3 (11725865_a_at) / RFU CAMK2N1 (11719241_x_at) / Fold change /veh CAMK2N1 (11719241_x_at) / RFU C5orf56 (11738088_a_at) / Fold change /veh C5orf56 (11738088_a_at) / RFU OLFML3 (11715873_a_at) / Fold change /veh OLFML3 (11715873_a_at) / RFU LOC100653217 /// NTM (11731650_a_at) / Fold change /veh LOC100653217 /// NTM (11731650_a_at) / RFU MAPK11 (11762145_a_at) / Fold change /veh MAPK11 (11762145_a_at) / RFU FIZ1 (11724087_x_at) / Fold change /veh FIZ1 (11724087_x_at) / RFU OASL (11726364_x_at) / Fold change /veh OASL (11726364_x_at) / RFU SOX15 (11748057_x_at) / Fold change /veh SOX15 (11748057_x_at) / RFU CD79A (11719716_a_at) / Fold change /veh CD79A (11719716_a_at) / RFU HIST1H1D (11736915_at) / Fold change /veh HIST1H1D (11736915_at) / RFU CASKIN2 (11723855_a_at) / Fold change /veh CASKIN2 (11723855_a_at) / RFU LOC730098 (11760151_x_at) / Fold change /veh LOC730098 (11760151_x_at) / RFU OR4N2 (11742367_at) / Fold change /veh OR4N2 (11742367_at) / RFU PRRT2 (11749266_a_at) / Fold change /veh PRRT2 (11749266_a_at) / RFU SNX32 (11753110_a_at) / Fold change /veh SNX32 (11753110_a_at) / RFU CDHR5 (11726645_a_at) / Fold change /veh CDHR5 (11726645_a_at) / RFU RCAN1 (11760418_a_at) / Fold change /veh RCAN1 (11760418_a_at) / RFU FAM167A (11723789_a_at) / Fold change /veh FAM167A (11723789_a_at) / RFU FAM26E (11764081_at) / Fold change /veh FAM26E (11764081_at) / RFU ISYNA1 (11749810_s_at) / Fold change /veh ISYNA1 (11749810_s_at) / RFU ACY1 (11761880_at) / Fold change /veh ACY1 (11761880_at) / RFU 11764098_at / Fold change /veh 11764098_at / RFU SAMD14 (11745864_x_at) / Fold change /veh SAMD14 (11745864_x_at) / RFU NPB (11741838_a_at) / Fold change /veh NPB (11741838_a_at) / RFU TMPRSS6 (11731388_a_at) / Fold change /veh TMPRSS6 (11731388_a_at) / RFU KRTAP10-2 (11738614_at) / Fold change /veh KRTAP10-2 (11738614_at) / RFU ARHGAP8 /// PRR5-ARHGAP8 (11727945_x_at) / Fold change /veh ARHGAP8 /// PRR5-ARHGAP8 (11727945_x_at) / RFU KRTAP5-7 /// NADSYN1 (11734609_at) / Fold change /veh KRTAP5-7 /// NADSYN1 (11734609_at) / RFU RASL12 (11751679_a_at) / Fold change /veh RASL12 (11751679_a_at) / RFU CDKN2B (11736163_a_at) / Fold change /veh CDKN2B (11736163_a_at) / RFU PRF1 (11729649_at) / Fold change /veh PRF1 (11729649_at) / RFU, ZNF638 /// ZNF638-IT1 / Fold change vs veh, ZNF638 /// ZNF638-IT1 / RFU, PANK3 / Fold change vs veh, PANK3 / RFU, SH3YL1 / Fold change vs veh, SH3YL1 / RFU, ZEB2 / Fold change vs veh, ZEB2 / RFU, NRIP1 / Fold change vs veh, NRIP1 / RFU, PTTG1IP / Fold change vs veh, PTTG1IP / RFU, CAPN2 / Fold change vs veh, CAPN2 / RFU, MED14 / Fold change vs veh, MED14 / RFU, SNORA58 / Fold change vs veh, SNORA58 / RFU, C1orf63 / Fold change vs veh, C1orf63 / RFU, LRRFIP1 / Fold change vs veh, LRRFIP1 / RFU, NDUFAF7 / Fold change vs veh, NDUFAF7 / RFU, SLC12A2 / Fold change vs veh, SLC12A2 / RFU, IBTK / Fold change vs veh, IBTK / RFU, ESF1 / Fold change vs veh, ESF1 / Fold change vs veh, TMEM50B / RFU, TAOK1 / Fold change vs veh, TAOK1 / RFU, ACBD3 / Fold change vs veh, ACBD3 / RFU, TMA16 / Fold change vs veh, TMA16 / RFU, RWDD3 / Fold change vs veh, RWDD3 / RFU, BCAT1 / Fold change vs veh, BCAT1 / RFU, EDEM3 / Fold change vs veh, EDEM3 / RFU, TMEM33 / Fold change vs veh, TMEM33 / RFU, WDR75 / Fold change vs veh, WDR75 / RFU, AHCTF1 / Fold change vs veh, AHCTF1 / RFU, TFRC / Fold change vs veh, TFRC / RFU, ZDHHC17 / Fold change vs veh, ZDHHC17 / RFU, NOM1 / Fold change vs veh, NOM1 / RFU, ARL8B / Fold change vs veh, ARL8B / RFU, ZBTB11 / Fold change vs veh, ZBTB11 / RFU, TAMM41 / Fold change vs veh, TAMM41 / RFU, KIAA1704 /// LOC100996395 / Fold change vs veh, KIAA1704 /// LOC100996395 / RFU, ING1 / Fold change vs veh, ING1 / RFU, TRMT61B / Fold change vs veh, TRMT61B / RFU, FUBP3 / Fold change vs veh, FUBP3 / RFU, TP53 / Fold change vs veh, TP53 / RFU, TNKS2 / Fold change vs veh, TNKS2 / RFU, ZFP14 / Fold change vs veh, ZFP14 / RFU, ACTR2 / Fold change vs veh, ACTR2 / RFU, PPP3R1 / Fold change vs veh, PPP3R1 / RFU, PIK3R1 / Fold change vs veh, PIK3R1 / RFU, HNRNPA1 / Fold change vs veh, HNRNPA1 / RFU, RNF170 / Fold change vs veh, RNF170 / RFU, ZNF28 / Fold change vs veh, ZNF28 / RFU, RNGTT / Fold change vs veh, RNGTT / RFU, OGT / Fold change vs veh, OGT / RFU, BRD1 / Fold change vs veh, BRD1 / RFU, MARS / Fold change vs veh, MARS / RFU, ZNF655 / Fold change vs veh, ZNF655 / RFU, FAHD1 / Fold change vs veh, FAHD1 / RFU, BDP1 / Fold change vs veh, BDP1 / RFU, LRRCC1 / Fold change vs veh, LRRCC1 / RFU, ARID1A / Fold change vs veh, ARID1A / RFU, ZNF146 / Fold change vs veh, ZNF146 / RFU, ZNF330 / Fold change vs veh, ZNF330 / RFU, GPN3 / Fold change vs veh, GPN3 / RFU, C9orf123 / Fold change vs veh, C9orf123 / RFU, N4BP2L2 / Fold change vs veh, N4BP2L2 / RFU, ARFIP1 / Fold change vs veh, ARFIP1 / RFU, FAM179B / Fold change vs veh, FAM179B / RFU, BCL10 / Fold change vs veh, BCL10 / RFU, UHRF1BP1L / Fold change vs veh, UHRF1BP1L / RFU, BET1 / Fold change vs veh, BET1 / RFU, CNOT2 / Fold change vs veh, CNOT2 / RFU, ZNF268 / Fold change vs veh, ZNF268 / Fold change vs veh, ZNF507 / RFU, DGCR2 / Fold change vs veh, DGCR2 / RFU, WDSUB1 / Fold change vs veh, WDSUB1 / Fold change vs veh, HSP90B1 /// MIR3652 / RFU, ADSS / Fold change vs veh, ADSS / RFU, GK / Fold change vs veh, GK / RFU, ZNF148 / Fold change vs veh, ZNF148 / RFU, TAF9 / Fold change vs veh, TAF9 / RFU, SLC1A5 / Fold change vs veh, SLC1A5 / RFU, SLMO2 / Fold change vs veh, SLMO2 / RFU, ABCC4 / Fold change vs veh, ABCC4 / RFU, LOC101060439 /// RAP1B / Fold change vs veh, LOC101060439 /// RAP1B / RFU, RFX7 / Fold change vs veh, RFX7 / RFU, GTPBP10 / Fold change vs veh, GTPBP10 / RFU, CNEP1R1 / Fold change vs veh, CNEP1R1 / RFU, BIVM-ERCC5 /// ERCC5 / Fold change vs veh, BIVM-ERCC5 /// ERCC5 / RFU, ILF3 / Fold change vs veh, ILF3 / RFU 11762660_at / Fold change /veh 11762660_at / RFU VCAN (11757783_s_at) / Fold change /veh VCAN (11757783_s_at) / RFU DDX43 (11728927_at) / Fold change /veh DDX43 (11728927_at) / RFU KRT8 (11758188_x_at) / Fold change /veh KRT8 (11758188_x_at) / RFU NKD1 (11759106_at) / Fold change /veh NKD1 (11759106_at) / RFU SRD5A1 (11742802_a_at) / Fold change /veh SRD5A1 (11742802_a_at) / RFU TPSAB1 /// TPSB2 (11721975_s_at) / Fold change /veh TPSAB1 /// TPSB2 (11721975_s_at) / RFU GSTM3 (11746129_a_at) / Fold change /veh GSTM3 (11746129_a_at) / RFU IL23R (11737362_x_at) / Fold change /veh IL23R (11737362_x_at) / RFU TMEM51 (11727254_a_at) / Fold change /veh TMEM51 (11727254_a_at) / RFU PIWIL2 (11732686_x_at) / Fold change /veh PIWIL2 (11732686_x_at) / RFU ORM1 (11744905_x_at) / Fold change /veh ORM1 (11744905_x_at) / RFU CCDC152 (11743942_at) / Fold change /veh CCDC152 (11743942_at) / RFU ECM1 (11717891_a_at) / Fold change /veh ECM1 (11717891_a_at) / RFU IL23R (11748794_a_at) / Fold change /veh IL23R (11748794_a_at) / RFU TNFAIP8L3 (11732012_x_at) / Fold change /veh TNFAIP8L3 (11732012_x_at) / RFU MBOAT4 (11741988_at) / Fold change /veh MBOAT4 (11741988_at) / RFU 11764193_at / Fold change /veh 11764193_at / RFU TMEM53 (11763286_at) / Fold change /veh TMEM53 (11763286_at) / RFU MAGEB2 (11727129_at) / Fold change /veh MAGEB2 (11727129_at) / RFU TMEM200A (11744735_a_at) / Fold change /veh TMEM200A (11744735_a_at) / RFU CCDC152 (11751479_a_at) / Fold change /veh CCDC152 (11751479_a_at) / RFU FAM211A (11726209_a_at) / Fold change /veh FAM211A (11726209_a_at) / RFU RGS16 (11746705_a_at) / Fold change /veh RGS16 (11746705_a_at) / RFU VCAN (11755009_s_at) / Fold change /veh VCAN (11755009_s_at) / RFU RHOB (11743442_s_at) / Fold change /veh RHOB (11743442_s_at) / RFU RGS16 (11720943_a_at) / Fold change /veh RGS16 (11720943_a_at) / RFU RGS16 (11720944_at) / Fold change /veh RGS16 (11720944_at) / RFU, VPS4B / Fold change vs veh, VPS4B / RFU, CREB1 / Fold change vs veh, CREB1 / RFU, DNAJC13 / Fold change vs veh, DNAJC13 / RFU, GNAQ / Fold change vs veh, GNAQ / RFU, CDK5R1 / Fold change vs veh, CDK5R1 / RFU, ZRANB3 / Fold change vs veh, ZRANB3 / RFU, CUL4A / Fold change vs veh, CUL4A / RFU, CCNY / Fold change vs veh, CCNY / RFU, UFL1 / Fold change vs veh, UFL1 / RFU, COG3 / Fold change vs veh, COG3 / RFU, DIAPH2 / Fold change vs veh, DIAPH2 / RFU, SKA2 / Fold change vs veh, SKA2 / RFU, AFF3 / Fold change vs veh, AFF3 / RFU, LMF1 / Fold change vs veh, LMF1 / RFU, IPO11 / Fold change vs veh, IPO11 / RFU, DFFB / Fold change vs veh, DFFB / RFU, FOXP1 / Fold change vs veh, FOXP1 / RFU, CARD8 / Fold change vs veh, CARD8 / RFU, STRN3 / Fold change vs veh, STRN3 / RFU, ADK / Fold change vs veh, ADK / RFU, RASSF2 / Fold change vs veh, RASSF2 / RFU, WIPF1 / Fold change vs veh, WIPF1 / RFU, LARP1B / Fold change vs veh, LARP1B / RFU, RASA1 / Fold change vs veh, RASA1 / RFU, RB1 / Fold change vs veh, RB1 / RFU, PPFIA1 / Fold change vs veh, PPFIA1 / RFU, MAT2A / Fold change vs veh, MAT2A / RFU, CCT5 / Fold change vs veh, CCT5 / RFU, WDR92 / Fold change vs veh, WDR92 / RFU, CUX1 / Fold change vs veh, CUX1 / RFU, TTC7A / Fold change vs veh, TTC7A / RFU, TMEM135 / Fold change vs veh, TMEM135 / RFU, DEPTOR / Fold change vs veh, DEPTOR / RFU, CPM / Fold change vs veh, CPM / RFU, DNAJB6 / Fold change vs veh, DNAJB6 / RFU, CACNA2D3 / Fold change vs veh, CACNA2D3 / RFU, DTX4 / Fold change vs veh, DTX4 / RFU, TFCP2 / Fold change vs veh, TFCP2 / RFU, GMCL1 /// GMCL1P1 / Fold change vs veh, GMCL1 /// GMCL1P1 / RFU, AEBP2 / Fold change vs veh, AEBP2 / RFU, SNHG1 /// SNORD22 /// SNORD25 /// SNORD26 /// SNORD27 /// SNORD28 /// SNORD29 /// SNORD31 / Fold change vs veh, SNHG1 /// SNORD22 /// SNORD25 /// SNORD26 /// SNORD27 /// SNORD28 /// SNORD29 /// SNORD31 / Fold change (Aza/veh), C12orf56 (ProbeSet 11735607_a_at) / Fold change (ACY-1035/veh), C12orf56 (ProbeSet 11735607_a_at) / Fold change (Aza/veh), FGFR1OP (ProbeSet 11751329_s_at) / Fold change (ACY-1035/veh), FGFR1OP (ProbeSet 11751329_s_at) / Fold change (Aza/veh), VPS36 (ProbeSet 11739960_a_at) / Fold change (ACY-1035/veh), VPS36 (ProbeSet 11739960_a_at) / RFU SYPL1 (11715823_x_at) / Fold change /veh SYPL1 (11715823_x_at) / RFU IGFBP7 (11715501_s_at) / Fold change /veh IGFBP7 (11715501_s_at) / RFU REEP3 (11722064_at) / Fold change /veh REEP3 (11722064_at) / RFU IGLL1 (11728026_x_at) / Fold change /veh IGLL1 (11728026_x_at): dose or concentration left out as unconfirmed. The format is cell-based, human.

Regarding `Nc1ccc(-c2cccs2)cc1NC(=O)c1ccc2c(c1)cc(C1CC1)n2CCN1CCOCC1` [ACY-1035], the “Fold change vs veh, TAMM41” value is on record as 0.90.
